Test results published in the NIST ThermoML archive (doi:10.1016/j.jct.2006.10.017).
Numbers after ± are expanded uncertainties.

Columns and labels:
[1] = 101 kPa, Liquid
[2] = refractive index (Na D-line) (dimensionless); conditions: 101.33 kPa, Liquid
[3] = refractive index (Na D-line) (dimensionless); xn = mol fraction of the nth substance listed; conditions: 101 kPa, Liquid
[4] = xn = mol fraction of the nth substance listed; conditions: 101 kPa, Liquid

CCCCn1cc[n+](C)c1.COS(=O)(=O)[O-] [1-butyl-3-methylimidazolium methyl sulfate]
Conditions | mass density, 293.15 K [kg/m3] | mass density, 298.15 K [kg/m3] | mass density, 303.15 K [kg/m3] | refractive index, 293.15 K | refractive index, 298.15 K | refractive index, 303.15 K | speed of sound, 293.15 K [m/s] | speed of sound, 298.15 K [m/s] | speed of sound, 303.15 K [m/s]
[1] | 1215.6 ± 2.1 | 1212.2 ± 2.1 | 1208.8 ± 2.1 | – | – | – | 1671 ± 13 | 1658 ± 13 | 1645 ± 13
[2] | – | – | – | 1.48077 ± 0.0013 | 1.47942 ± 0.0013 | 1.47806 ± 0.0013 | – | – | –

CCCCCCCC[n+]1ccn(C)c1.F[P-](F)(F)(F)(F)F [1-octyl-3-methylimidazolium hexafluorophosphate]
Conditions | mass density, 293.15 K [kg/m3] | mass density, 298.15 K [kg/m3] | mass density, 303.15 K [kg/m3] | refractive index, 293.15 K | refractive index, 298.15 K | refractive index, 303.15 K | speed of sound, 293.15 K [m/s] | speed of sound, 298.15 K [m/s] | speed of sound, 303.15 K [m/s]
[1] | 1239.6 ± 2.2 | 1235.7 ± 2.2 | 1231.9 ± 2.2 | – | – | – | 1424 ± 11 | 1408 ± 11 | 1393 ± 11
[2] | – | – | – | 1.4244 ± 0.0013 | 1.42302 ± 0.0013 | 1.42165 ± 0.0013 | – | – | –

CCO [ethanol]
Conditions | mass density, 293.15 K [kg/m3] | mass density, 298.15 K [kg/m3] | mass density, 303.15 K [kg/m3] | refractive index, 293.15 K | refractive index, 298.15 K | refractive index, 303.15 K | speed of sound, 293.15 K [m/s] | speed of sound, 298.15 K [m/s] | speed of sound, 303.15 K [m/s]
[1] | 789.3 ± 0.9 | 785.1 ± 0.9 | 780.7 ± 0.9 | – | – | – | 1160 ± 10 | 1143 ± 10 | 1127 ± 9
[2] | – | – | – | 1.36138 ± 0.0013 | 1.35929 ± 0.0013 | 1.35725 ± 0.0013 | – | – | –

CCCCCCn1cc[n+](C)c1.F[P-](F)(F)(F)(F)F [1-hexyl-3-methylimidazolium hexafluorophosphate] + CCO
Conditions | mass density, [4] [kg/m3] | refractive index, [3] | speed of sound, [4] [m/s]
293.15 K, x1 = 0.0198 | 830 ± 0.9 | 1.36597 ± 0.0013 | 1164 ± 10
293.15 K, x1 = 0.2033 | 1055.6 ± 0.6 | 1.39358 ± 0.0013 | 1248 ± 10
293.15 K, x1 = 0.312 | 1125.6 ± 0.8 | 1.40092 ± 0.0013 | 1300 ± 11
293.15 K, x1 = 0.3897 | 1161.8 ± 1 | 1.40471 ± 0.0013 | 1329 ± 11
293.15 K, x1 = 0.5002 | 1201.4 ± 1.2 | 1.40893 ± 0.0013 | 1360 ± 11
293.15 K, x1 = 0.5982 | 1228.4 ± 1.5 | 1.41163 ± 0.0013 | 1380 ± 11
293.15 K, x1 = 0.6961 | 1250.2 ± 1.7 | 1.41394 ± 0.0013 | 1396 ± 11
293.15 K, x1 = 0.7902 | 1267.6 ± 1.9 | 1.41562 ± 0.0013 | 1410 ± 11
293.15 K, x1 = 0.9033 | 1285.2 ± 2.2 | 1.41784 ± 0.0013 | 1423 ± 11
293.15 K, x1 = 0.992 | 1297 ± 2.5 | 1.41884 ± 0.0013 | 1435 ± 12
293.15 K, x1 = 1 | 1297.9 ± 2.5 | 1.41923 ± 0.0013 | 1438 ± 12
298.15 K, x1 = 0.0198 | 825.8 ± 0.9 | 1.36482 ± 0.0013 | 1150 ± 10
298.15 K, x1 = 0.0465 | 873.5 ± 0.7 | 1.37109 ± 0.0013 | 1160 ± 10
298.15 K, x1 = 0.0991 | 948.7 ± 0.5 | 1.38024 ± 0.0013 | 1185 ± 10
298.15 K, x1 = 0.2033 | 1051.6 ± 0.5 | 1.3921 ± 0.0013 | 1237 ± 10
298.15 K, x1 = 0.312 | 1121.5 ± 0.8 | 1.39964 ± 0.0013 | 1288 ± 11
298.15 K, x1 = 0.3897 | 1157.7 ± 1 | 1.40388 ± 0.0013 | 1317 ± 11
298.15 K, x1 = 0.5002 | 1197.2 ± 1.2 | 1.4081 ± 0.0013 | 1348 ± 11
298.15 K, x1 = 0.5982 | 1224.4 ± 1.4 | 1.41098 ± 0.0013 | 1368 ± 11
298.15 K, x1 = 0.6961 | 1246.2 ± 1.7 | 1.41313 ± 0.0013 | 1384 ± 11
298.15 K, x1 = 0.7902 | 1263.5 ± 1.9 | 1.41472 ± 0.0013 | 1397 ± 11
298.15 K, x1 = 0.9033 | 1281.1 ± 2.2 | 1.41645 ± 0.0013 | 1410 ± 11
298.15 K, x1 = 0.992 | 1292.8 ± 2.5 | 1.41775 ± 0.0013 | 1421 ± 11
298.15 K, x1 = 1 | 1293.7 ± 2.5 | 1.41787 ± 0.0013 | 1424 ± 11
303.15 K, x1 = 0.0198 | 821.8 ± 0.9 | 1.36297 ± 0.0013 | 1134 ± 10
303.15 K, x1 = 0.0465 | 869.8 ± 0.7 | 1.36941 ± 0.0013 | 1144 ± 10
303.15 K, x1 = 0.0991 | 944.8 ± 0.5 | 1.3787 ± 0.0014 | 1169 ± 10
303.15 K, x1 = 0.2033 | 1047.5 ± 0.5 | 1.39057 ± 0.0014 | 1226 ± 10
303.15 K, x1 = 0.312 | 1117.3 ± 0.8 | 1.39816 ± 0.0013 | 1277 ± 10
303.15 K, x1 = 0.3897 | 1153.6 ± 0.9 | 1.40239 ± 0.0013 | 1306 ± 11
303.15 K, x1 = 0.5002 | 1193.3 ± 1.2 | 1.40693 ± 0.0013 | 1336 ± 11
303.15 K, x1 = 0.5982 | 1220.4 ± 1.4 | 1.40986 ± 0.0013 | 1357 ± 11
303.15 K, x1 = 0.6961 | 1242.2 ± 1.7 | 1.41197 ± 0.0013 | 1372 ± 11
303.15 K, x1 = 0.7902 | 1259.5 ± 1.9 | 1.41366 ± 0.0013 | 1386 ± 11
303.15 K, x1 = 0.9033 | 1277 ± 2.2 | 1.41525 ± 0.0013 | 1399 ± 11
303.15 K, x1 = 0.992 | 1288.7 ± 2.5 | 1.41635 ± 0.0013 | 1409 ± 11
303.15 K, x1 = 1 | 1289.6 ± 2.5 | 1.41643 ± 0.0013 | 1411 ± 11
